Test results reported in PubChem BioAssay (NCI).
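Each compound was tested at five concentrations against cells in 96-well plates for 48 hours. Here, GI50 denotes the concentration required for 50% inhibition of growth. TGI denotes the concentration required for complete inhibition of growth.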

Key:
Assay in all cases: NCI tumour cell line growth inhibition, 48 h
[1] = tested on: K-562 leukemia
[2] = tested on: UACC-257 melanoma
[3] = tested on: SF-295 CNS
[4] = tested on: ACHN renal
[5] = tested on: UO-31 renal
[6] = tested on: NCI-H23 lung
[7] = tested on: RPMI-8226 leukemia
[8] = tested on: SK-MEL-28 melanoma
[9] = tested on: SK-OV-3 ovarian
[10] = tested on: SF-539 CNS

SMILES | GI50 [1] [µM] | TGI [1] [µM] | GI50 [2] [µM] | TGI [2] [µM] | GI50 [3] [µM] | TGI [3] [µM] | GI50 [4] [µM] | TGI [4] [µM] | GI50 [5] [µM] | TGI [5] [µM] | GI50 [6] [µM] | TGI [6] [µM] | GI50 [7] [µM] | TGI [7] [µM] | GI50 [8] [µM] | TGI [8] [µM] | GI50 [9] [µM] | TGI [9] [µM] | GI50 [10] [µM] | TGI [10] [µM]
FCc1ncc(-c2ccc(C(F)(F)F)cc2)c(NC2CCCCCC2)n1 | > 10 | > 10 | > 10 | > 10 | > 10 | > 10 | > 10 | > 10 | > 10 | > 10 | > 10 | > 10 | > 10 | > 10 | > 10 | > 10 | > 10 | > 10 | > 10 | > 10
CCN(CCNc1ccc(C)c2sc3ccccc3c(=O)c12)CC(C)(C)O | 2.94 | > 22.2 | 2.15 | 5.43 | 3.77 | 20.2 | 12.3 | 34.8 | 7.34 | 24.3 | 15.4 | 41.8 | 2.11 | 8.04 | 6.16 | 17.8 | 11.1 | 27 | 12.1 | 25.2
O=C(OC[C@H]1O[C@@H](OC(=O)c2cc(O)c(O)c(O)c2)[C@H](OC(=O)c2cc(O)c(O)c(O)c2)[C@@H](OC(=O)c2cc(O)c(O)c(O)c2)[C@@H]1OC(=O)c1cc(O)c(O)c(O)c1)c1cc(O)c(O)c(O)c1 |  | > 100 |  | 65 |  | 20.3 |  | 30.1 |  | 19.2 |  | 7.71 |  | > 100 |  | 56.7 |  | > 100 |  | 16.3
C[C@]12CC[C@@H]3c4ccc(O)cc4C(O)C[C@H]3[C@@H]1CCC2=O (stereo not given in full) | > 100 | > 100 | > 100 | > 100 | > 100 | > 100 | > 100 | > 100 | 53.8 | > 100 | > 100 | > 100 | 60.6 | > 100 | > 100 | > 100 | > 100 | > 100 | > 100 | > 100
Cc1cc(N/N=C/c2nc(-c3ccc(Cl)cc3)oc2C)c2cc(Cl)ccc2n1 | 0.571 | 2.56 | 1.93 | 4.52 | 10.2 | 22.6 | 1.95 | 3.78 | 12.6 | 25.2 | 5.34 | 19.1 | 2.07 | 5.21 | 1.99 | 3.86 | 3.54 | 12.8 | 1.88 | 3.46
Cc1cc(-c2nnc3n2CCCCC3)c(C)n1-c1ccc(Cl)c(Cl)c1 | 5.14 | 39.3 | 12.7 | 32.3 | 16.4 | 52.5 | 12 | > 100 | 12.6 | 36.7 | 12.3 | 35.2 | 9.53 | 39.9 | 10.7 | 23.2 | 19.2 | 45.7 | 16.6 | 32.4
c1nnc(NCNc2nncs2)s1 |  | > 100 |  | > 100 |  | > 100 |  | > 100 |  | > 100 |  | > 100 |  | > 100 |  | > 100 |  | > 100 |  | > 100
O=C1c2ccccc2-n2c1nc1ccccc1c2=O |  | > 44.6 |  | 9.65 |  | 18.8 |  | 29.3 |  | 42.9 |  | 33.8 |  | > 100 |  | 50.7 |  | > 100 |  | 43.3
O=c1ccc(=O)c2c(=O)c3ccccc3c(=O)c1=2 |  | > 100 |  | 90.4 |  | > 100 |  | > 100 |  | > 100 |  | > 100 |  | > 100 |  | > 100 |  | > 100 |  | 70.9
COc1ccc(Cl)cc1Nc1nc(C(F)(F)F)ccc1C(=O)N/N=C/c1cc(OC)c(OC)c(OC)c1 | 2.42 | > 100 | 1.65 | 3.96 | 1.09 | 2.92 | 3.28 | 11.3 | 1.24 | 3.79 | 5.35 | 40.6 | > 100 | > 100 | 1.83 | 9.26 | 3.04 | 15 | 1.51 | 3.2
COc1ccc(C2CC(n3nnnc3-c3ccccc3)=NN2)cc1 (stereo not given) | 0.486 | 28.2 | 2.76 | 12.6 | 0.662 | 3.12 | 1.44 | 22.4 | 1.39 | 11.7 | 10.8 | 41.7 | 2.88 | 53.5 | 13.3 | > 100 | 22.4 | 66.1 | 2.34 | 5.87
CC(=O)OC1[C@H]2c3cc4c(cc3CN3CCC(=C[C@@H]1O)C23)OCO4 (stereo not given in full) |  | > 100 |  | > 100 |  | > 100 |  | > 100 |  | > 100 |  | > 100 |  | > 100 |  | > 100 |  | > 100 |  | > 100
C=C1C(=O)OC2/C=C(\C=O)CC/C=C(\C)C(O)C[C@@H]12 (stereo not given in full) |  | > 36.1 |  | 18 |  | 28.3 |  | 19.9 |  | 26.8 |  | 17.7 |  | 8.69 |  | 15.7 |  | 52.5 |  | 27.2
C=C1C(=O)O[C@H]2C[C@@]3(C)[C@H](O)CCC(=C)[C@@H]3[C@@H](OC(C)=O)[C@H]12 |  | > 23.3 |  | 34.8 |  | 40.5 |  | 12.9 |  | 27 |  | 27.6 |  | 68.7 |  | > 65.9 |  | > 83.6 |  | 10.2
CC(C)(C)NC(=O)[C@H]1C[C@H]2CCCC[C@H]2CN1C[C@@H](O)[C@H](Cc1ccccc1)NC(=O)[C@H](CC(N)=O)NC(=O)c1ccc2ccccc2n1 | 8.51 | 24.4 | 13.4 | 28.2 | 18.3 | 39.3 | 16 | 29.5 | 15.5 | 29.9 | 16 | 33.2 | 3.5 | 14.8 | 16.9 | 33.1 | 18.9 | 42.9 | 2.93 | 23.9
CC1(C)C2CCC3(C2)CS(=O)(=O)N2OC231 (stereo not given) |  | 54.6 |  | 33.1 |  | > 100 |  | 29.4 |  | 31.3 |  | 33.4 |  | > 100 |  | 44.7 |  | > 100 |  | 33.6
COC(=O)C1=C(C(=O)OC)SC(=C(Cl)C(=S)Sc2ccccc2N)S1 | 68.7 | > 100 | 20.3 | 55.7 | 26.2 | 64.5 | 22.7 | 49.7 | 27 | > 100 | 10.1 | 25.9 | 51.8 | > 100 | > 100 | > 100 | 41.3 | > 100 | 18.3 | 42.5
Cc1nc(C(N)=S)sc1C(=O)C/C(=N/N)C(=O)Nc1cccc(Cl)c1C |  | > 100 |  | > 100 |  | > 100 |  | > 100 |  | > 100 |  | > 100 |  | > 100 |  | > 100 |  | > 100 |  | > 100
CN(C)C(=O)O[C@@H]1CN[C@@H](C#Cc2cc3ncnc(Nc4ccc(OCc5cccc(F)c5)c(Cl)c4)c3s2)C1 | > 25 | > 25 | > 25 | > 25 | > 25 | > 25 | 18.9 | > 25 | 5.22 | > 20.9 | > 25 | > 25 | 7.18 | > 25 | > 25 | > 25 | 0.406 | > 25 | 8.58 | > 25
O=[N+]([O-])c1nccn1COCCBr |  | > 100 |  | > 100 |  | > 100 |  | > 100 |  | > 100 |  | > 100 |  | > 100 |  | > 100 |  | > 100 |  | > 100
Cc1c2ccc(N(C)c3ccnc(Nc4cccc(S(N)(=O)=O)c4)n3)cc2nn1C | 5.54 | > 25 | 12.2 | > 25 | 6.81 | > 19.9 | 8.12 | > 25 | 5.96 | > 23.1 | 7.49 | > 25 | 13.6 | > 25 | 9.95 | > 25 | 7.03 | 20.6 | 2.39 | > 20.4
NC(=O)c1ccc(C2C3=C(CCCC3=O)OC3=C2C(=O)c2ccccc2C3=O)cc1 (stereo not given) | 0.391 | 1.96 | 0.232 | 1.26 | 1.53 | 3.18 | 1.14 | 2.41 | 1.54 | 2.91 | 0.202 | 1.14 | 0.521 | 2.63 | 1.33 | 2.87 | 2.12 | 4.11 | 0.307 | 1.03
